Experimental data as given in patent US9890147B2 (BAYER PHARMA AKTIENGESELLSCHAFT, priority 2012, dated 2018).

Columns and labels:
BRD4 (BD1) = target: T1, BRD4 (BD1) (Homo sapiens, UniProt O60885); experiment: Binding assay BRD4/acetylated peptide H4 (TR-FRET protein-protein interaction assay)
T1 construct: with relatively long constructs also being possible, preferably amino acids 44-168; made in house; host or cells: E. coli
How it was run: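 His6-BRD4 BD1 (aa 67-152, E. coli), usually 10 nM, with biotinylated tetra-acetylated H4 peptide in HEPES pH 7.5 buffer; 11 compound concentrations 0.1 nM–20 μM in duplicate, 10 min preincubation, 1 h at 22 °C then ≥3 h at 4 °C. TR-FRET 665/620 ratio; IC50 by 4-parameter fit.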

MOLM-13 cells = experiment: Cell proliferation assay (alamarBlue), MOLM-13; type: cell-based; settings: Homo sapiens, 96 hours incubation, inhibition of cell proliferation
How it was run: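 Cells in RPMI1640/10% FCS read by alamarBlue fluorescence (ex 530, em 590 nm) after overnight 37 °C incubation, then treated at 1E-5 to 1E-8 M for 96 h. Pre-treatment values subtracted from endpoint values and compared with buffer-only wells; IC50 is 50% proliferation inhibition.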

Structure (SMILES)	IC50 (BRD4 (BD1)) [nM]	IC50 (MOLM-13 cells) [nM]
CNC(=O)N1N=C(c2ccc(-c3ccccc3OC)cc2)c2cc(OC)c(OC)cc2CC1C (racemic) [Example 90, (±)-7,8-dimethoxy-1-(2′-methoxybiphenyl-4-yl)-N,4-40dimethyl-4,5-dihydro-3H-2,3-benzodiazepine-3-carboxamide]	70	460
CNC(=O)N1N=C(c2ccc(-c3ccccc3C(F)(F)F)cc2)c2cc(OC)c(OC)cc2CC1C (racemic) [Example 91, (±)-7,8-dimethoxy-N,4-dimethyl-1-[2′-(trifluoromethyl)biphenyl-4-yl]-4,5-dihydro-3H-2,3-benzodiazepine-3-carboxamide]	340	550
CNC(=O)N1N=C(c2ccc(-c3ccccc3Cl)cc2)c2cc(OC)c(OC)cc2CC1C (racemic) [Example 92, (±)-1-(2′-chlorobiphenyl-4-yl)-7,8-dimethoxy-N,4-dimethyl-4,5-dihydro-3H-2,3-benzodiazepine-3-carboxamide]	180	850
CNC(=O)N1N=C(c2ccc(-c3ccccc3F)cc2)c2cc(OC)c(OC)cc2CC1C (racemic) [Example 93, (±)-1-(2′-fluorobiphenyl-4-yl)-7,8-dimethoxy-N,4-dimethyl-4,5-dihydro-3H-2,3-benzodiazepine-3-carboxamide]	120	460
CNC(=O)N1N=C(c2ccc(-c3ccc(CO)cc3)cc2)c2cc(OC)c(OC)cc2CC1C (racemic) [Example 94, (±)-1-[4′-(hydroxymethyl)biphenyl-4-yl]-7,8-dimethoxy-N,4-dimethyl-4,5-dihydro-3H-2,3-benzodiazepine-3-carboxamide]	40	380
CNC(=O)N1N=C(c2ccc(-c3ccc(OC(F)(F)F)cc3)cc2)c2cc(OC)c(OC)cc2CC1C (racemic) [Example 95, (±)-7,8-dimethoxy-N,4-dimethyl-1-[4′-(trifluoromethoxy)biphenyl-4-yl]-4,5-dihydro-3H-2,3-benzodiazepine-3-carboxamide]	630	2760
CNC(=O)N1N=C(c2ccc(-c3cccc(C(=O)N4CCCCC4)c3)cc2)c2cc(OC)c(OC)cc2CC1C (racemic) [Example 97, (±)-7,8-dimethoxy-N,4-dimethyl-1-[3′-(piperidin-1-ylcarbonyl)biphenyl-4-yl]-4,5-dihydro-3H-2,3-benzodiazepine-3-carboxamide]	50	450
CNC(=O)N1N=C(c2ccc(-c3cccc(C(=O)N4CCOCC4)c3)cc2)c2cc(OC)c(OC)cc2CC1C (racemic) [Example 98, (±)-7,8-dimethoxy-N,4-dimethyl-1-[3′-(morpholin-4-ylcarbonyl)biphenyl-4-yl]-4,5-dihydro-3H-2,3-benzodiazepine-3-carboxamide]	30	270
CNC(=O)N1N=C(c2ccc(-c3cccc(C(=O)NC4CC4)c3)cc2)c2cc(OC)c(OC)cc2CC1C (racemic) [Example 99, (±)-1-[3′-(cyclopropylcarbamoyl)-biphenyl-4-yl]-7,8-dimethoxy-N,4-dimethyl-4,5-dihydro-3H-2,3-benzodiazepine-3-carboxamide]	30	270
CNC(=O)N1N=C(c2ccc(-c3ccnn3C)cc2)c2cc(OC)c(OC)cc2CC1C (racemic) [Example 101, (±)-7,8-dimethoxy-N,4-dimethyl-1-[4-(1-methyl-1H-pyrazol-5-yl)phenyl]-4,5-dihydro-3H-2,3-benzodiazepine-3-carboxamide]	60	650
CNC(=O)N1N=C(c2ccc(-c3ccc([N+](=O)[O-])cc3)cc2)c2cc(OC)c(OC)cc2CC1C (racemic) [Example 102, (±)-7,8-dimethoxy-N,4-dimethyl-1-(4′-nitrobiphenyl-4-yl)-4,5-dihydro-3H-2,3-benzodiazepine-3-carboxamide]	90	960
CNC(=O)N1N=C(c2ccc(-c3cccnc3)cc2)c2cc(OC)c(OC)cc2CC1C (racemic) [Example 103, (±)-7,8-dimethoxy-N,4-dimethyl-1-[4-(pyridin-3-yl)phenyl]-4,5-dihydro-3H-2,3-benzodiazepine-3-carboxamide]	40	350
CNC(=O)N1N=C(c2ccc(-c3cnccc3OC)cc2)c2cc(OC)c(OC)cc2CC1C (racemic) [Example 104, (±)-7,8-dimethoxy-1-[4-(4-methoxypyridin-3-yl)phenyl]-N,4-dimethyl-4,5-dihydro-3H-2,3-benzodiazepine-3-carboxamide]	30	260
CNC(=O)N1N=C(c2ccc(-c3cccc(C#N)c3)cc2)c2cc(OC)c(OC)cc2CC1C (racemic) [Example 105, (±)-1-(3′-cyanobiphenyl-4-yl)-7,8-dimethoxy-N,4-dimethyl-4,5-dihydro-3H-2,3-benzodiazepine-3-carboxamide]	80	670
CNC(=O)N1N=C(c2ccc(-c3ccc(C#N)cc3)cc2)c2cc(OC)c(OC)cc2CC1C (racemic) [Example 106, (±)-1-(4′-cyanobiphenyl-4-yl)-7,8-dimethoxy-N,4-dimethyl-4,5-dihydro-3H-2,3-benzodiazepine-3-carboxamide]	90	2550
CNC(=O)N1N=C(c2ccc(-c3ccccc3OC(F)(F)F)cc2)c2cc(OC)c(OC)cc2CC1C (racemic) [Example 107, (±)-7,8-dimethoxy-N,4-dimethyl-1-[2′-(trifluoromethoxy)biphenyl-4-yl]-4,5-dihydro-3H-2,3-benzodiazepine-3-carboxamide]	260	630
CNC(=O)N1N=C(c2ccc(-c3ccc(S(C)(=O)=O)cc3)cc2)c2cc(OC)c(OC)cc2CC1C (racemic) [Example 108, (±)-7,8-dimethoxy-N,4-dimethyl-1-[4′-(methylsulphonyl)biphenyl-4-yl]-4,5-dihydro-3H-2,3-benzodiazepine-3-carboxamide]	60	1560
CNC(=O)N1N=C(c2ccc(-c3ccccc3C#N)cc2)c2cc(OC)c(OC)cc2CC1C (racemic) [Example 109, (±)-1-(2′-cyanobiphenyl-4-yl)-7,8-dimethoxy-N,4-dimethyl-4,5-dihydro-3H-2,3-benzodiazepine-3-carboxamide]	50	1160
CNC(=O)N1N=C(c2ccc(-c3ccc(N4CCOCC4)cc3)cc2)c2cc(OC)c(OC)cc2CC1C (racemic) [Example 110, (±)-7,8-dimethoxy-N,4-dimethyl-1-[4′-(morpholin-4-yl)biphenyl-4-yl]-4,5-dihydro-3H-2,3-benzodiazepine-3-carboxamide]	60	360
CNC(=O)N1N=C(c2ccc(-c3cncnc3)cc2)c2cc(OC)c(OC)cc2CC1C (racemic) [Example 111, (±)-7,8-dimethoxy-N,4-dimethyl-1-[4-(pyrimidin-5-yl)phenyl]-4,5-dihydro-3H-2,3-benzodiazepine-3-carboxamide]	80	810
CNC(=O)N1N=C(c2ccc(-c3ccccc3CO)cc2)c2cc(OC)c(OC)cc2CC1C (racemic) [Example 112, (±)-1-[2′-(hydroxymethyl)biphenyl-4-yl]-7,8-dimethoxy-N,4-dimethyl-4,5-dihydro-3H-2,3-benzodiazepine-3-carboxamide]	80	630
CNC(=O)N1N=C(c2ccc(-c3cccc(C(=O)NCCN(C)C)c3)cc2)c2cc(OC)c(OC)cc2CC1C (racemic) [Example 113, (±)-1-(3′-{[2-(dimethylamino)ethyl]carbamoyl}biphenyl-4-yl)-7,8-dimethoxy-N,4-dimethyl-4,5-dihydro-3H-2,3-benzodiazepine-3-carboxamide]	40	1420
CNC(=O)N1N=C(c2ccc(-c3cccc(S(N)(=O)=O)c3)cc2)c2cc(OC)c(OC)cc2CC1C (racemic) [Example 114, (±)-7,8-dimethoxy-N,4-dimethyl-1-(3′-sulphamoylbiphenyl-4-yl)-4,5-dihydro-3H-2,3-benzodiazepine-3-carboxamide]	40	300
CNC(=O)N1N=C(c2ccc(-c3ccc(S(=O)(=O)NC)cc3)cc2)c2cc(OC)c(OC)cc2CC1C (racemic) [Example 115, (±)-7,8-dimethoxy-N,4-dimethyl-1-[4′-(methylsulphamoyl)biphenyl-4-yl]-4,5-dihydro-3H-2,3-benzodiazepine-3-carboxamide]	50	460
CNC(=O)N1N=C(c2ccc(-c3cccn3C)cc2)c2cc(OC)c(OC)cc2CC1C (racemic) [Example 116, (±)-7,8-dimethoxy-N,4-dimethyl-1-[4-(1-methyl-1H-pyrrol-2-yl)phenyl]-4,5-dihydro-3H-2,3-benzodiazepine-3-carboxamide]	70	490
CNC(=O)N1N=C(c2ccc(-c3ccc(C)nc3)cc2)c2cc(OC)c(OC)cc2CC1C (racemic) [Example 117, (±)-7,8-dimethoxy-N,4-dimethyl-1-[4-(6-methylpyridin-3-yl)phenyl]-4,5-dihydro-3H-2,3-benzodiazepine-3-carboxamide]	50	380
CNC(=O)N1N=C(c2ccc(-c3ccc(S(=O)(=O)NC4CC4)cc3)cc2)c2cc(OC)c(OC)cc2CC1C (racemic) [Example 118, (±)-1-[4′-(cyclopropylsulphamoyl)-biphenyl-4-yl]-7,8-dimethoxy-N,4-dimethyl-4,5-dihydro-3H-2,3-benzodiazepine-3-carboxamide]	70	500
